According to patent publication US10125097B2, “1- [1-(benzoyl)-pyrrolidine-2-carbonyl]-pyrrolidine-2-carbonitrile derivatives” (UNIVERSITAT DE BARCELONA, priority 2012, dated 2018):
Read-outs that look alike come from different tables or passages of the source.

Columns and labels:
[1] = Parallel artificial membrane permeability assay (PAMPA); assay type: in vitro ADME; conditions: 200 μM initial concentration, pH 7.4, 4 hours, room temperature; for Papp at 4 h, 200 μM: PAMPA, read-out: Effective permeability Pe
Procedure: Parallel artificial membrane permeability assay (PAMPA) described in Kansy M et al., J. Med. Chem. 1998; 41(7):1007-10 was used to determine the capacity of compounds to cross the Blood-Brain Barrier (BBB) by passive diffusion (Di L et al., Eur. J. Med. Chem. 2003; 38(3):223-32). The effective permeability (Pe) of the compounds was measured at an initial concentration of 200 μM. The buffer solution was prepared from a commercial concentrated one following the manufacturer's instructions. pH was adjusted to 7.4 using a 0.5 M NaOH solution. A stock solution of new compound was prepared in DMSO and diluted with buffer solution to a final 200 μM concentration (0.5% DMSO content). The PAMPA sandwich was separated and each donor well was filled with 200 μL of the compound solution. The acceptor plate was placed into the donor plate, ensuring that the underside of the membrane was in contact with buffer. 4 μL of the mixture of phospholipids (20 mg/mL) in dodecane was added to the filter of each well, and 200 μL of buffer solution was added to the each acceptor well. The plate was covered and incubated at room temperature in a saturated humidity atmosphere for 4 hours under orbital agitation at 100 rpm. After 4 hours, the contents of the acceptor and donor compartments were analyzed by HPLC: 150 μL of each well from the donor plate and 150 μL of each well from the acceptor plate were transferred to HPLC vials, injecting each sample into a reverse-phase C18 column (150 mm×4.6 mm×5 μm, 100 Å) (100 μL/injection from the acceptor wells, 10 μL/injection from the donor wells and for t0 references). Transport was also confirmed by MALDI-TOF spectrometry.
The phospholipid mixture used was a porcine polar brain lipid extract, provided by Avanti polar lipids, with the following composition: 12.6% phosphatidylcholine (PC), 33.1% phosphatidylethanolamine (PE), 18.5% phosphatidylserine (PS), 4.1% phosphatidylinositol (PI), 0.8% phosphatidic acid and 30.9% of other compounds.
The effective permeability (Pe) after 4 hours was calculated using equation 2 and the percentage of transport was calculated using equation 3:
[formula] wherein: t is time (h) CA(t) is the compound concentration in the acceptor well at time t and CD(to) is the compound concentration in the donor well at to.

[2] = target: human prolyl oligopeptidase (Homo sapiens (Human), UniProt P48147); assay: POP inhibition assay (Z-G-P-AMC substrate, fluorimetric); assay type: biochemical
Sequence of human prolyl oligopeptidase (P48147 whole entry): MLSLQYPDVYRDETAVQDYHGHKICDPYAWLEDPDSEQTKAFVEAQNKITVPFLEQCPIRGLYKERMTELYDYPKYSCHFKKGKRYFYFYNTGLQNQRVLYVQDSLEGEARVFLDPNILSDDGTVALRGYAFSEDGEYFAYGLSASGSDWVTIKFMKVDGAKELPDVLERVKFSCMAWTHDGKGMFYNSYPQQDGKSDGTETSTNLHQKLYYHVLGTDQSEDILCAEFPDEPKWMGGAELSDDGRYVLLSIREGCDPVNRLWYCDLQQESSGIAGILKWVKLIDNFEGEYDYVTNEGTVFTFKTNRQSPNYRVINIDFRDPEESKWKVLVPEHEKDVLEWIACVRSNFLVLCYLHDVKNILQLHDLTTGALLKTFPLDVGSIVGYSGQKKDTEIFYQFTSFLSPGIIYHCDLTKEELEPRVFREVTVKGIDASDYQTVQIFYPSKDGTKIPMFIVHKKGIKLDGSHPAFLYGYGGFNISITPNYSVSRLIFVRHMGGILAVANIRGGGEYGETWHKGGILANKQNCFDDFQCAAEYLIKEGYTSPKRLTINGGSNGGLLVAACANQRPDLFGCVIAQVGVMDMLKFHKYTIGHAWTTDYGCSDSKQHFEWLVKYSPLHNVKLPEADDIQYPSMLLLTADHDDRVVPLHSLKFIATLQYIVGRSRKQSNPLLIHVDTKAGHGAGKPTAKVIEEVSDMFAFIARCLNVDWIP
Procedure: Expression and Purification of Prolyl Oligopeptidase (POP)
POP was obtained by expression in E. coli and affinity purification using a His tail fusion according to a literature procedure (Tarragó T et al., ChemBioChem 2006; 7:827-33) summarized below:
hPOP expression: E. coli BL21 competent cells were transformed with pETM10 hPOP. To induce expression, a pre-culture of LB medium (50 mL) containing kanamycin (50 μg/mL) was inoculated with one colony and was grown overnight at 37° C. Next day, two cultures of LB medium (500 mL) were inoculated with the overnight culture (10 mL). The inoculated cultures were grown at 37° C. and 220 rpm until the OD595 was 1.2 (2.5-3 hours). IPTG was then added (final concentration of 1 mM) and induction was performed overnight at 25° C. Cells were harvested (3500 g, 15 min, 4° C.) and the pellet was suspended in suspension buffer (50 mL) [Tris-HCl pH 8 (50 mM), NaCl (300 mM), imidazole (1 mM)] and sonicated with use of four cycles (each consisting of 15 sec of sonication and 15 sec of rest) at an intensity of 50% and 0.5 pulses, the sample being kept on ice. After sonication, the sample was centrifuged (40 000 g, 30 min, 4° C.) and the supernatant was used immediately for POP purification. An ÁKTA explorer FPLC system was used for purification. The supernatant was applied at a flow of 1 mL/min to a HiTrapQuelating column (5 mL) previously equilibrated with 5 column volumes of suspension buffer. The column was washed with suspension buffer until the absorbance at 280 nm returned to basal level. The column was then rinsed with 5 volumes of washing buffer (50 mM Tris-HCl, pH 8, 300 mM NaCl, 30 mM imidazole). The elution was performed with 4 volumes of elution buffer (50 mM Tris-HCl, pH 8, 300 mM NaCl, 500 mM imidazole). Fractions (4 mL) were collected during the entire elution. POP activity was checked in all fractions and positive ones were analyzed by SDS-PAGE and stained with Biosafe Comassie Stain G-250. Positive fractions were collected and desalted by use of a HiPrep 26/10 Desalting column with Tris-HCl (50 mM, pH 8) as buffer. Recombinant hPOP was quantified with the Bio-Rad Protein Assay with BSA as standard. Aliquots of the recombinant enzyme were prepared and immediately frozen with liquid nitrogen and stored at −80° C.
POP activity was determined following the method described by Toide et al (Toide K et al., J. Pharmacol. Exp. Ther. 1995; 274:1370-8), using Z-G-P-AMC (N-benzyloxycarbonyl-Gly-Pro-methylcoumarinyl-7-amide) as POP substrate. The reactions were performed in 96-well microtiter plates, which allowed simultaneous monitoring of multiple reactions. For each reaction, activity buffer (134 μl, 100 mM Na/K phosphate buffer, pH 8.0) was pre-incubated for 15 min at 37° C. with hPOP (ranging from 20 to 60 nM, depending on the activity of the hPOP batch) and the corresponding new compound solution (3 μl). A stock solution of new compound was prepared in DMSO (100 mM), and dilutions were prepared from this stock solution with DMSO. Alternatively, the reactions were performed using another activity buffer (141 μL, 100 mM Tris-acetate, […], 1 mM DTT, pH 7.3), pre-incubating with hPOP (10 nM) and the corresponding new compound solution (3 μl) (Conditions B).
After preincubation, Z-G-P-AMC (10 μl, 3 mM in 40% 1,4-dioxane) was added (3 μl, 1.5 mM in 40% of 1,4-dioxane, in Conditions B), and the reaction was incubated for 1 hour at 37° C. The reaction was stopped by adding sodium acetate (150 μl, 1 M, pH 4) and the formation of AMC was measured fluorimetrically. The excitation and emission wavelengths were 360/40 and 485/20 nm, respectively.
Several concentration points (ranging from 25 μM to 400 μM) were measured for each compound. The inhibitory activity on prolyl oligopeptidase was calculated according to eq 1. For each new compound, the fluorescence in the presence (a) and in the absence of hPOP (b) was measured. […]

[3] = Conditions B: 100 mM Tris-acetate, 10 mM BSA, 1 mM DTT, pH 7.3, hPOP 10 nM, read-out: IC50, inhibition of human prolyl oligopeptidase, measured in conditions B
[4] = 100 mM Na/K phosphate buffer, pH 8.0, hPOP 20 to 60 nM, Z-G-P-AMC, 1 hour at 37° C., read-out: IC50, inhibition of human prolyl oligopeptidase

| % T (percentage of transport) [1] [%] | Papp at 4 h, 200 μM [1] [×10⁻⁶ cm/s] | IC50 [2, 3] [nM] | IC50 [2, 4] [nM] | SMILES |
| --- | --- | --- | --- | --- |
| 17.03 | 9.98 |  | 176 | COc1cc(C(=O)N2C[C@@H](SC)C[C@H]2C(=O)N2CCC[C@H]2C#N)cc(OC)c1OCc1ccccc1 [Example 5, (S)-1-((2S,4S)-1-(4-(benzyloxy)-3,5-dimethoxybenzoyl)-4-(methythio)pyrrolidine-2-carbonyl)pyrrolidine-2-carbonitrile] |
| 13.03 | 7.28 |  | 60.4 | COc1cc(C(=O)N2C[C@H](F)C[C@H]2C(=O)N2CCC[C@H]2C#N)cc(OC)c1OCc1ccccc1 [Example 2, (S)-1-((2S,4R)-1-(4-(benzyloxy)-3,5-dimethoxybenzoyl)-4-fluoropyrrolidine-2-carbonyl)pyrrolidine-2-carbonitrile] |
| 19.27 | 5.07 |  | 176 | COc1cc(C(=O)N2C[C@@H](C(F)(F)F)C[C@H]2C(=O)N2CCC[C@H]2C#N)cc(OC)c1OCc1ccccc1 [Example 8, (S)-1-((2S,4S)-1-(4-(benzyloxy)-3,5-dimethoxybenzoyl)-4-(trifluoromethyl)-pyrrolidine-2-carbonyl)pyrrolidine-2-carbonitrile] |
| 5.72 | 2.89 |  | 339 | COc1cc(C(=O)N2C[C@H](c3ccccc3)C[C@H]2C(=O)N2CCC[C@H]2C#N)cc(OC)c1OCc1ccccc1 [Example 3, (S)-1-((2S,4S)-1-(4-(benzyloxy)-3,5-dimethoxybenzoyl)-4-phenylpyrrolidine-2-carbonyl)pyrrolidine-2-carbonitrile] |
| 14.76 | 3.79 | 13.1 |  | COc1cc(C(=O)N2C[C@@H](C)C[C@H]2C(=O)N2CCC[C@H]2C#N)cc(OC)c1OCc1ccccc1 [Example 6, (S)-1-((2S,4S)-1-(4-(benzyloxy)-3,5-dimethoxybenzoyl)-4-methylpyrrolidine-2-carbonyl)pyrrolidine-2-carbonitrile] |
| 4.3 | 1 |  | 63.8 | COc1cc(C(=O)N2C[C@H](OC)C[C@H]2C(=O)N2CCC[C@H]2C#N)cc(OC)c1OCc1ccccc1 [Example 1, (S)-1-((2S,4R)-1-(4-(benzyloxy)-3,5-dimethoxybenzoyl)-4-methoxypyrrolidine-2-carbonyl)pyrrolidine-2-carbonitrile] |

The remaining lines, values behind:

| SMILES | % T (percentage of transport) [1] [%] | Papp at 4 h, 200 μM [1] [×10⁻⁶ cm/s] | IC50 [2, 3] [nM] | IC50 [2, 4] [nM] |
| --- | --- | --- | --- | --- |
| N#C[C@@H]1CCCN1C(=O)[C@@H]1CC(F)(F)CN1C(=O)c1ccccc1OCc1ccccc1 [Example 19, (S)-1-((S)-1-(2-(benzyloxy)benzoyl)-4,4-difluoropyrrolidine-2-carbonyl)pyrrolidine-2-carbonitrile] | 17.55 | 10.3 | 255 |  |
| N#C[C@@H]1CCCN1C(=O)[C@@H]1CC(F)(F)CN1C(=O)c1ccc(OCc2ccccc2)c(F)c1 [Example 21, (S)-1-((S)-1-(4-(benzyloxy)-3-fluorobenzoyl)-4,4-difluoropyrrolidine-2-carbonyl)pyrrolidine-2-carbonitrile] | 10.43 | 5.57 | 5 |  |
| COc1cc(C(=O)N2C[C@H](OC(C)(C)C)C[C@H]2C(=O)N2CCC[C@H]2C#N)cc(OC)c1OCc1ccccc1 [Example 9, (S)-1-((2S,4R)-1-(4-(benzyloxy)-3,5-dimethoxybenzoyl)-4-(tert-butoxy)pyrrolidine-2-carbonyl)pyrrolidine-2-carbonitrile] |  |  |  | 668 |
| COc1cc(C(=O)N2CC(F)(F)C[C@H]2C(=O)N2CCC[C@H]2C#N)cc(OC)c1OC(=O)c1ccccc1 [Example 12, (S)-1-((2S)-1-(4-benzoyloxy-3,5-dimethoxybenzoyl)-4,4-difluoropyrrolidine-2-carbonyl)pyrrolidine-2-carbonitrile] | 8.47 | 2.1 |  | 111 |
| COc1cc(C(=O)N2CC(F)(F)C[C@H]2C(=O)N2CCC[C@H]2C#N)cc(OC)c1OC(C)=O [Example 11, (S)-1-((2S)-1-(4-acetoxy-3,5-dimethoxybenzoyl)-4,4-difluoropyrrolidine-2-carbonyl)pyrrolidine-2-carbonitrile] |  |  |  | 352 |
| COc1cc(C(=O)N2CC(F)(F)C[C@H]2C(=O)N2CCC[C@H]2C#N)cc(OCc2ccccc2)c1OCc1ccccc1 [Example 13, (S)-1-((2S)-1-(3,4-dibenzyloxy-5-methoxybenzoyl)-4,4-difluoropyrrolidine-2-carbonyl)pyrrolidine-2-carbonitrile] |  |  |  | 336 |
| N#C[C@@H]1CCCN1C(=O)[C@@H]1CC(F)(F)CN1C(=O)c1ccc(OCc2ccccc2)c(C(F)(F)F)c1 [Example 20, (S)-1-((S)-1-(4-(benzyloxy)-3-(trifluoromethyl)benzoyl)-4,4-difluoropyrrolidine-2-carbonyl)pyrrolidine-2-carbonitrile] | 2.64 | 1.29 | 4.5 |  |
| COc1cc(C(=O)N2CC(F)(F)C[C@H]2C(=O)N2CCC[C@H]2C#N)cc(OC(C)=O)c1OC [Example 15, (S)-1-((2S)-1-(3-acetoxy-4,5-dimethoxybenzoyl)-4,4-difluoropyrrolidine-2-carbonyl)pyrrolidine-2-carbonitrile] |  |  |  | 5600 |
| N#C[C@@H]1CCCN1C(=O)[C@@H]1CC(F)(F)CN1C(=O)c1ccc(OCc2ccccc2)cc1 [Example 17, (S)-1-((S)-1-(4-(benzyloxy)benzoyl)-4,4-difluoropyrrolidine-2-carbonyl)pyrrolidine-2-carbonitrile] | 14.12 | 8.04 | 287 |  |
